Results taken from US5696112A, “Fused heterocyclic azepines as vasopressin antagonists” (American Cyanamid Company, priority 1995, dated 1997).

Legend:
[1] = target: T1, Rat Hepatic V1 Receptors (vasopressin V1) (Rattus norvegicus, UniProt P30560); assay: Binding Assay to Rat Hepatic V1 Receptors; conditions: rat hepatic V1, [3H]vasopressin
T1 construct: Rat liver plasma membranes expressing the vasopressin V1 receptor subtypes are isolated by sucrose density gradient; from tissue; host or cells: rat liver plasma membranes
Method: Binding Assay to Rat Hepatic V1 Receptors
Rat liver plasma membranes expressing the vasopressin V1 receptor subtypes are isolated by sucrose density gradient according to the method described by Lesko et al., (1973). These membranes are quickly suspended in 50.0 mMTris.HCl buffer, pH 7.4, containing 0.2% bovine serum albumin (BSA) and 0.1 mM phenylmethylsulfonylfluoride (PMSF) and kept frozen at -70° C. until used in subsequent binding experiments. For binding experiments, the following is added to the wells of a ninety-six well format microtiter plate: 100 μl of 100.0 mM Tris.HCl buffer containing 10.0 mM MgCl2, 0.2% heat inactivated BSA and a mixture of protease inhibitors: leupeptin, 1.0 mg %; aprotinin, 1.0 mg %, 1,10-phenanthroline,2.0 mg %; trypsin inhibitor, 10.0 mg % and 0.1 mM PMSF, 20.0 μl of [phenylalanyl-3,4,5-^3 H]vasopressin (S.A. 45.1 Ci/mmole) at 0.8 nM, and the reaction initiated by the addition of 80 μl of tissue membranes containing 20 μg of tissue protein. The plates are kept undisturbed on the bench top at room temperature for 120 min. to reach equilibrium. Nonspecific samples are assayed in the presence of 0.1 μM of the unlabeled antagonist phenylalanylvasopressin, added in 20.0 μl volume to a final incubation volume of 200 μl. Upon completion of binding, the content of each well is filtered off, using a Brandel® cell Harvester (Gaithersburg, Md.). The radioactivity trapped on the filter disk by the ligand-receptor complex is assessed by liquid scintillation counting in a Packard LS Counter, with an efficiency of 65% for tritium. The data are analyzed for IC50 values by the LUNDON-2 program for competition (LUNDON SOFTWARE, OH).

[2] = target: T2, Rat Kidney Medullary V2 Receptors (vasopressin V2) (Rattus norvegicus, UniProt Q00788); assay: Binding Assay to Rat Kidney Medullary V2 Receptors; conditions: rat kidney medullary V2, [3H]Arg8-vasopressin
T2 construct: Medullary tissues from rat kidneys are dissected out; from tissue; host or cells: rat kidney medulla membranes
Method: Binding Assay to Rat Kidney Medullary V2 Receptors
Medullary tissues from rat kidneys are dissected out, cut into small pieces and let soak in a […] sodium chloride solution containing 1.0 mM EDTA with many changes of the liquid phase, until the solution is clear of blood. The tissue is homogenized in a 0.25M sucrose solution containing 1.0 mM EDTA and 0.1 mM PMSF using a Potter-Elvehjem homogenizer with a teflon pestle. The homogenate is filtered through several layers (4 layers) of cheese cloth. The filtrate is rehomogenized using a dounce homogenizer, with a tight fitting pestle. The final homogenate is contrifuged at 1500×g for 15 min. The nuclear pellet is discarded and the supernatant fluid recentrifuged at 40,000×g for 30 min. The resulting pellet formed contains a dark inner part with the exterior, slightly pink. The pink outer part is suspended in a small amount of 50.0 mMTris.HCl buffer, pH 7.4. The protein content is determined by the Lowry's method (Lowry et al, J. Biol. Chem., 1953). The membrane suspension is stored at -70° C., in 50.0 mMTris.HCl, containing 0.2% inactivated BSA and 0.1 mM PMSF in aliquots of 1.0 ml containing 10.0 mg protein per ml of suspension until use in subsequent binding experiments.
For binding experiments, the following is added in μl volume to wells of a 96 well format of a microtiter plate: 100.0 μl of 100.0 mM Tris.HCl buffer containing 0.2% heat inactivated BSA, 10.0 mM MgCl2 and a mixture of protease inhibitors: leupeptin, 1.0 mg %; aprotinin, 1.0 mg %; 1,10-phenanthroline, 2.0 mg %; trypsin inhibitor, 10.0 mg % and 0.1 mM PMSF, 20.0 μl of [^3 H]Arginine^8, vasopressin (S.A. 75.0 Ci/mmole) at 0.8 nM and the reaction initiated by the addition of 80.0 μl of tissue membranes (200.0 μg tissue protein). The plates are left undisturbed on the bench top for 120 min. to reach equilibrium. Non-specific binding is assessed in the presence of 1.0 μM of unlabeled ligand, added in 20 μl volume. For test compounds, these are solubilized in 50% dimethylsulfoxide (DMSO) and added in 20.0 μl volume to a final incubation volume of 200 μl. Upon completion of binding, the content of each well is filtered off, using a Brandel® cell Harvester (Gaithersburg, Md.). The radioactivity trapped on the filter disk by the ligand-receptor complex is assessed by liquid scintillation counting in a Packard LS Counter, with an efficiency of 65% for tritium. The data are analyzed for IC50 values by the LUNDON-2 program for competition (LUNDON SOFTWARE, OH).

[3] = system: Vasopressin V2; assay: Vasopressin V2 Antagonist Activity in Conscious Hydrated Rats; assay type: in vivo, rat; conditions: AVP 0.4 μg/kg i.p.
Method: Vasopressin V2 Antagonist Activity in conscious Hydrated Rats Conscious hydrated rats are treated with compounds under study from 0.1 to 100 mg/kg orally or vehicle. Two to four rats are used for each compound. One hour later, arginine vasopressin (AVP, antidiuretic hormone, ADH) dissolved in peanut oil is administered at 0.4 μg/kg intraperitoneally. Two rats in each test would not receive arginine vasopressin but only the vehicle (peanut oil) to serve as water-loading control. Twenty minutes later each rat is given 30 mL/kg of deionized water orally by gavage and is placed individually in a metabolic cage equipped with a funnel and a graduated glass cylinder to collect urine for four hours. Urine volume is measured and osmolality analyzed by use of a Fiske One-Ten osmometer (Fiske Assoc., Norwood, Mass. USA). Urinary sodium, potassium, and chloride are analyzed by use of ion-specific electrodes in a Beckman E3 (Electrolyte 3) Analyzer. In the following results, […] and […] osmolality relative to AVP-control indicates activity.

[4] = system: Vasopressin V1; assay: Vasopressin V1 Antagonist Activity in Conscious Rats (vasopressin vasopressor response); assay type: in vivo, rat
Method: Vasopressin V1 Antagonist Activity in Conscious Rats Conscious rats are restrained in a supine position with elastic tape. The area at the base of the tail is locally anesthetization by subcutaneous infiltration with 2% procaine (0.2 ml). Using aseptic technique the ventral caudal tail artery is isolated and a cannula made of PE 10 and 20 (heat-fused) tubing is passed into the lower abdominal aorta. The cannula is secured, heparinized (1000 i.u./cc), sealed and the would closed with one or two stitches of Dexon 4-0. The caudal vein is also cannulated in the same manner for intravenous drug administration. The duration of the surgery is approximately 5 minutes. Additional local anesthesia (2% procaine or lidocaine) is provided as needed. The animals are placed in plastic restraining cages in an upright position. The cannula is attached to a […] pressure transducer and pulsatile blood pressure is recorded. […] Percentage of antagonism by the compound is calculated using the pre-drug vasopressin vasopressor response as 100%.

[5] = target: T3, oxytocin receptors (Rattus norvegicus, UniProt P70536); assay: Oxytocin Receptor Binding; parameters: species or system Sprague-Dawley rats; conditions: for IC50: 1.0 nM [3H]oxytocin
T3 construct: The uteri are dissected out, cleaned of fat and connective tissues; from tissue; host or cells: uterus membranes of DES-treated female Sprague-Dawley rats
T3 sequence (P70536 1-388): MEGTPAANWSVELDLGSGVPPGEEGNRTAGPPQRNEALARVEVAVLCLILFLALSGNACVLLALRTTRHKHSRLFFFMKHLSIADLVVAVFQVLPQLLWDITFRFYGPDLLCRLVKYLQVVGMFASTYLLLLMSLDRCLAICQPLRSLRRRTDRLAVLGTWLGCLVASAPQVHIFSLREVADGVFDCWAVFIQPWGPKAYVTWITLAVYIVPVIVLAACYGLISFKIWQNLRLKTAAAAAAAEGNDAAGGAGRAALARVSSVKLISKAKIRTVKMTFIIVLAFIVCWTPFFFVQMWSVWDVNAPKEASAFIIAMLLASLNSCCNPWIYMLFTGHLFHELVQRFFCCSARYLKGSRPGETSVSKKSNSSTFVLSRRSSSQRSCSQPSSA
Method: Oxytocin Receptor Binding
Female Sprague-Dawley rats weighing approximately 200-250 g are injected intramuscularly (i.m.) with 0.3 mg/kg of body weight of diethylstilbestrol (DES). The rats are sacrificed 18 hours later under pentobarbital anesthesia. The uteri are dissected out, cleaned of fat and connective tissues and rinsed in 50 ml of normal saline. The tissue pooled from six rats is homogenized in 50 ml of 0.01 mMTris.HCl, containing 0.5 mM dithiothreitol and 1.0 mM EDTA, adjusted to pH 7.4, using a polytron at setting 6 with three passes of 10 sec each. The homogenate is passed through two (2) layers of cheesecloth and the filtrate centrifuged at 1000×g for 10 min. The clear supernatant is removed and recentrifuged at 165,000×g for 30 min. The resulting pellet containing the oxytocin receptors is resuspended in 50.0 mM Tris.HCl containing 5.0 mM MgCl2 at pH 7.4, to give a protein concentration of 2.5 mg/ml of tissue suspension. This preparation is used in subsequent binding assays with [^3 H]Oxytocin.
Binding of 3,5-[^3 H]Oxytocin ([^3 H]OT) to its receptors is done in microtiter plates using [^3 H]OT, at various concentrations, in an assay buffer of 50.0 mM Tris.HCl, pH 7.4 and containing 5.0 mM MgCl2, and a mixture of protease inhibitors: BSA, 0.1 mg; aprotinin, 1.0 mg; 1,10-phenanthroline, 2.0 mg; […], 10.0 mg; and PMSF, 0.3 mg per 100 ml of buffer solution. Nonspecific binding is determined in the presence of 1.0 uM unlabeled OT. The binding reaction is terminated after 60 min., at 22° C., by rapid filtration through glass fiber filters using a Brandel® cell harvester (Biomedical Research and Development Laboratories, Inc., Gaithersburg, Md.). Competition experiments are conducted at equilibrium using 1.0 nM [^3 H]OT and varying the concentration of the displacing agents. The concentrations of agent displacing 50% of [^3 H]OT at its sites (IC50) are calculated by a computer assisted LUNDON-2 program (LUNDON SOFTWARE INC., Ohio, USA).

[6] = Rattus norvegicus, 10 mg/kg iv, read-out: Vasopressin vasopressor response, Max. % Inhibition

T2 sequence (Q00788 whole entry): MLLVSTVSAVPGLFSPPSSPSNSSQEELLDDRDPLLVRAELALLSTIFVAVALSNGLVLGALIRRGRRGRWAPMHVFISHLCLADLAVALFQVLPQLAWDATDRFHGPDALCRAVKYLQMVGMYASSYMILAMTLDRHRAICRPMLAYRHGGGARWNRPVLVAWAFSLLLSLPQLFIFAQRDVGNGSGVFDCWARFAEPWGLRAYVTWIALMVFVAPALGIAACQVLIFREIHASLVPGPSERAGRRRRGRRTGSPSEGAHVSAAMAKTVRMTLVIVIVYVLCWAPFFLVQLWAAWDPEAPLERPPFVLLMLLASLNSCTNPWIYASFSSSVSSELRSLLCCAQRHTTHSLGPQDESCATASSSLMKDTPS
T1 sequence (P30560 whole entry): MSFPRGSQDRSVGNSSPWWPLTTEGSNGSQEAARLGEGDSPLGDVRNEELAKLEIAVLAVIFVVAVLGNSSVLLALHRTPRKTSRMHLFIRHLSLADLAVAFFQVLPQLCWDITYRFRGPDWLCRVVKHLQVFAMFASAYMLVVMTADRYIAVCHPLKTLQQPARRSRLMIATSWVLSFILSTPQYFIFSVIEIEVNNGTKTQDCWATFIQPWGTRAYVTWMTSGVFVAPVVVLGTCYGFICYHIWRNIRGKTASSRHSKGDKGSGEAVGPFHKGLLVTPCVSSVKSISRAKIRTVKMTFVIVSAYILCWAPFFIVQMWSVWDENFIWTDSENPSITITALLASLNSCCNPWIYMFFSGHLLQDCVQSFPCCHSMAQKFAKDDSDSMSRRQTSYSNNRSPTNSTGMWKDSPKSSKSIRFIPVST

SMILES | IC50 [1] | IC50 [2] | IC50 [5] | inhibition at 10 µM ([5]; 10 μM) | inhibition at 2.5 µM ([5]; 2.5 μM) | Urine Volume ([3]; 10 mg/kg P.O.) | Time (Min) of Max. % Inhibition ([4]; 10 mg/kg iv) | inhibition in vivo at 10 mg/kg [4, 6] | Osmolality ([3]; 30 mg/kg P.O.) | Urine Volume ([3]; 30 mg/kg P.O.) | Time (Min) of Max. % Inhibition ([4]; 20 mg/kg iv) | inhibition in vivo at 20 mg/kg ([4]; Rattus norvegicus, 20 mg/kg iv, read-out: Vasopressin vasopressor response, Max. % Inhibition)
O=C(Cc1ccccc1Cl)Nc1ccc(C(=O)N2CCCCc3sccc32)cc1 [Example 2, N-[4-[(5,6,7,8-Tetrahydro-4H-thieno[3,2-b]azepin-4-yl)carbonyl]phenyl]-2-chlorobenzeneacetamide] | 0.0037 µM | 0.0026 µM |  |  |  | 2.8 ml/4 hours | 60 min | 7.6% |  |  |  | 
O=C(Nc1ccc(C(=O)N2CCCCc3sccc32)cc1)c1ccc(Cl)cc1Cl [Example 14, N-[4-[(5,6,7,8-Tetrahydro-4H-thieno[3,2-b]azepin-4-yl)carbonyl]phenyl]2,4-dichlorobenzamide] | 0.12 µM | 0.03 µM |  |  |  |  |  |  | 1432 mOsm/kg | 3.5 ml/4 hours | 120 min | 61%

Now from value to compound, other results behind:

IC50 [1] | IC50 [2] | IC50 [5] | inhibition at 10 µM ([5]; 10 μM) | inhibition at 2.5 µM ([5]; 2.5 μM) | SMILES | Urine Volume ([3]; 10 mg/kg P.O.) | Time (Min) of Max. % Inhibition ([4]; 10 mg/kg iv) | inhibition in vivo at 10 mg/kg [4, 6] | Osmolality ([3]; 30 mg/kg P.O.) | Urine Volume ([3]; 30 mg/kg P.O.) | Time (Min) of Max. % Inhibition ([4]; 20 mg/kg iv) | inhibition in vivo at 20 mg/kg ([4]; Rattus norvegicus, 20 mg/kg iv, read-out: Vasopressin vasopressor response, Max. % Inhibition)
0.065 µM | 0.055 µM |  |  |  | O=C(Nc1ccc(C(=O)N2CCCCc3sccc32)cc1)C1CC=CCC1 (stereo not shown) [Example 15, N-[4-[(5,6,7,8-Tetrahydro-4H-thieno[3,2-b]azepin-4-yl)carbonyl]phenyl]3-cyclohexenecarboxamide] |  | 30 min | 69% | 1397 mOsm/kg | 4.6 ml/4 hours |  | 
0.02 µM | 0.0033 µM |  |  |  | O=C(Cc1ccccc1Cl)Nc1ccc(C(=O)N2CCCCc3sc(Cl)cc32)cc1 [Example 99, N-[4-[(2-Chloro-5,6,7,8-tetrahydro-4H-thieno[3,2-b]azepin-4-yl)carbonyl]phenyl]-2-chlorobenzeneacetamide] |  | 90 min | 58% | 1135 mOsm/kg | 10 ml/4 hours |  | 
0.068 µM | 0.0061 µM | 0.34 µM | 96% |  | Cc1ccc(F)cc1C(=O)Nc1ccc(C(=O)N2CCCCc3sccc32)cn1 [Example 243, N-[5-[(5,6,7,8-tetrahydro-4H-thieno[3,2-b]azepin-4-yl)carbonyl]-2-pyridinyl]-5-fluoro-2-methylbenzamide] |  |  |  |  |  |  | 
0.068 µM | 0.0061 µM | 0.17 µM |  | 93% | O=C(Nc1ccc(C(=O)N2CCCCc3sccc32)cn1)c1ccccc1-c1ccccc1 [Example 252] |  |  |  |  |  |  | 
